Measurements taken from publication PMC9315496, “A Comparison of the Photophysical, Electrochemical and Cytotoxic Properties of meso-(2-, 3- and 4-Pyridyl)-BODIPYs and Their Derivatives” (Sensors (Basel, Switzerland), 2022).
Where two headings read alike, the source gives them in different places. Marks after values point to notes of the source that are not given here.

How the values were obtained:
HEp2 cells [1] = test: Dark cytotoxicity, Cell Titer Blue; assay type: cell-based; conditions: Homo sapiens, HEp-2, 24 h incubation, read-out: Dark Toxicity (IC50)
Description: (§1) Human carcinoma HEp2 cells were obtained from ATCC and maintained in a 75 cm^2 flask (Chemglass) with 1× MEM (Eagle’s minimal essential medium) containing 10% FBS (fetal bovine serum) and 1% antibiotic (penicillin–streptomycin) in a humidified, 5% CO2 incubator at 37 °C. Stock solutions with a concentration of 32 mM in DMSO were prepared for each BODIPY. The stock solution was diluted to the final working concentrations with culture medium. The HEp2 cells were plated at 7500–10,000 cells per well in a Costar 96-well plate and allowed to grow for 24 h. The BODIPY stock solution was diluted to a 200 μM working solution and two-fold serial dilutions were prepared with final concentrations of 200, 100, 50, 25, 12.5, 6.25, and 0 μM. Each BODIPY was incubated for 24 h at 37 °C under 5% CO2. For the dark cytotoxicity experiments, after incubation, excess BODIPY was removed by washing the cells three times with 1× PBS (phosphate-buffered saline) and replacing with media containing 20% Cell Titer Blue (Promega, Madison, WI, USA). The cells were then incubated for additional 24 h at 37 °C under 5% CO2 and the cell toxicity was determined by fluorescence intensity at ex 570/em 615 nm using a FluoStar Optima microplate reader (BMG Labtech, Cary, NC, USA).

HEp2 cells [2] = test: Phototoxicity (1.5 J/cm^2), Cell Titer Blue; assay type: cell-based; conditions: Homo sapiens, HEp-2, light or radiation study, light dose 1.5 J/cm^2
Description: as §1
For the phototoxicity experiments, after incubation the cells were exposed to a light dose of ~1.5 J/cm^2 generated using a 600 W Quartz Tungsten Halogen lamp (Newport Corporation, Irvine, CA, USA). The cells were exposed for 20 min while the 96-well plate rested on an EchoTherm chilling plate (Torrey Pines Scientific, Carlsbad, CA, USA) set to 5 °C. Following light exposure, the loading media was removed and media containing 20% Cell Titer Blue was added. After incubation for 24 h at 37 °C under 5% CO2, the cell viability was determined as described above.

Cyclic voltammetry = assay type: physicochemical
Source text: Cyclic voltammograms were collected on a Biologic SP-300 potentiostat using a three-electrode setup with a platinum working electrode (2 mm diameter, CH Instruments), platinum counter electrode (2 mm diameter, CH Instruments), and a silver wire pseudo reference-electrode stored in 0.25 M NBu4PF6 in anhydrous acetonitrile and separated from the electrochemical cell by a glass frit. The electrochemical cell was composed of a borosilicate glass scintillation vial with a custom-machined cap. Working electrodes were polished and then pre-treated by cycling between upper and lower boundaries of the electrochemical window for the experiment in a solution containing only the electrolyte. Measurements were taken in a solution of 0.25 M recrystallized NBu4PF6 in dried and degassed anhydrous acetonitrile. BODIPYs were added to 5 mL of electrolyte solution to give a concentration of 1 mM. Each solution also contained 1 mM ferrocene as an internal reference. Solutions were sparged with N2 before each measurement.

[3] = UV-vis absorption and emission spectroscopy, relative fluorescence quantum yields; assay type: physicochemical; conditions: for λabs / λem: room temperature; for Φf (relative fluorescence quantum yield): standard Ru(bpy)Cl2.6H2O (Φf = 0.028) in H2O, λexc = 436 nm
Description: UV−vis absorption spectra were collected on a Varian Cary 50 Bio spectrophotometer. Emission spectra were obtained on a PerkinElmer LS55 spectrophotometer, at room temperature. Spectrophotometric grade solvents and quartz cuvettes (1 cm path length) were used. Relative fluorescence quantum yields (Φf) were calculated using rhodamine 6G (Φf = 0.86 in methanol) as reference for the neutral BODIPYs and Ru(bpy)Cl2.6H2O (Φf = 0.028 in water) as the standard for the cationic BODIPYs using the following equation: Φx = Φst × Gradx/Gradst × (ηx/ηst)^2, where the ΦX and ΦST are the quantum yields of the sample and standard, GradX and GradST are the gradients from the plot of integrated fluorescence intensity vs. absorbance, and η represents the refractive index of the solvent (x is for the sample and st for the standard).

[4] = cited from earlier work
[5] = vs. Fc^+/Fc, 100 mV/s, acetonitrile, 0.25 M NBu4PF6

Structure (SMILES): CC1=C(Cl)C(C)=[N+]2C1=C(c1ccc[n+](C)c1)c1c(C)c(Cl)c(C)n1[B-]2(F)F [3catPyCl2, 2,6-Dichlo-8-(N-methyl-3-pyridyl)-1,3,5,7-tetramethyl-BODIPY]
- IC50 (HEp2 cells [1]): 120 µM
- IC50 (HEp2 cells [2]): > 100 µM
- first reduction wave shift positive compared with the unchlorinated BODIPY (Cyclic voltammetry): 240 mV
- second reduction wave shift positive compared with the unchlorinated BODIPY (Cyclic voltammetry): 120 mV
- anodic peak shift positive compared with the corresponding unchlorinated BODIPY (Cyclic voltammetry; 100 mV/s): 160 mV
- E1/2ox (oxidation peak potential only, irreversible wave) (Cyclic voltammetry; [5]): +1.10 ^c V
- E1/2red, first one-electron reduction (Cyclic voltammetry; [5]): −1.02 V
- E1/2red, second one-electron reduction (Cyclic voltammetry; [5]): −1.42 V
- Stokes Shift ([3]; CH3CN): 20 nm
- ε (molar extinction coefficient) ([3]; CH3CN): 43,160 M^−1 cm ^−1
- λabs ([3]; CH3CN): 540 nm
- λem ([3]; CH3CN): 560 nm
- Φf (relative fluorescence quantum yield) ([3]; CH3CN): 0.23 ^b
- Stokes Shift ([3]; H2O): 24 nm
- ε (molar extinction coefficient) ([3]; H2O): 35,180 M^−1 cm ^−1
- λabs ([3]; H2O): 540 nm
- λem ([3]; H2O): 564 nm
- Φf (relative fluorescence quantum yield) ([3]; H2O): 0.47
- Φf (relative fluorescence quantum yield) ([3]; H2O, listed as 3catPyCl2 (I^−)): 0.47 ^b
- fluorescence enhancement relative to the non-chlorinated pyridinium BODIPY ([3]; acetonitrile): 38 fold
- fluorescence enhancement relative to the non-chlorinated pyridinium BODIPY ([3]; water): 100 fold

Structure (SMILES): CC1=CC(C)=[N+]2C1=C(c1cc[n+](C)cc1)c1c(C)cc(C)n1[B-]2(F)F [4catPy]
- IC50 (HEp2 cells [1]): > 200 µM
- IC50 (HEp2 cells [2]): > 100 µM
- Stokes Shift ([4]; CH3CN): 87 nm
- Φf (fluorescence quantum yield) ([4]; CH3CN): 0.019
- ε (molar extinction coefficient) ([4]; CH3CN): 26,000 M^−1 cm ^−1
- λabs ([4]; CH3CN): 509 nm
- λem ([4]; CH3CN): 596 nm
- Stokes Shift ([4]; H2O): 91 nm
- Φf (fluorescence quantum yield) ([4]; H2O): 0.004
- ε (molar extinction coefficient) ([4]; H2O): 31,600 M^−1 cm ^−1
- λabs ([4]; H2O): 509 nm
- λem ([4]; H2O): 600 nm
- E1/2red, two-electron reduction to doubly reduced state (Cyclic voltammetry; [5]): −1.06 ^e V
- E1/2ox (Cyclic voltammetry; vs. Fc^+/Fc, 100 mV/s, acetonitrile, 0.25 M NBu4PF6, PF6^− counterion): +0.89 V
- bathochromic shift of maximum absorption wavelength upon methylation ([3]; acetonitrile, experimental): 8 nm
